Test in all cases: NCI-60 cell line screen, 48 h
The subject of test [1] is OVCAR-5 ovarian.
Test [2] concerns ACHN renal.
In test [3] the test system is HCT-15 colon.
The subject of test [4] is NCI-H226 lung.
Test [5] relates to SN12C renal.
Test [6] relates to BT-549 breast.
For test [7], the system named is SK-MEL-28 melanoma.
Test [8] concerns NCI-H522 lung.
Test [9] concerns SR leukemia.
The subject of test [10] is HL-60(TB) leukemia.

Where “and” joins values, the source holds several entries; their conditions need not be identical. Equal values may be shown once.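 In this assay, cells in 96-well plates receive the compound at five concentrations for 48 hours. Endpoints are linearly interpolated between the surrounding concentrations. At the GI50, growth is halved. The concentration for full growth arrest is given as TGI.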

As to `N#C[C@@H]1C(n2ccc(N)nc2=O)O[C@H](CO)[C@H]1O` (stereo partly drawn), the GI50 is greater than 75.2 µM in test [1]; 1.47 µM in test [2]; greater than 100 µM in [3]; greater than 57 µM in test [4]; 9.69 µM in test [5]; greater than 100 µM in test [6]. The GI50 in [7] was 64.2 µM; in test [8], 4.24 µM; in test [9], 7.31 µM; in test [10] it was 29.4 µM. Also, the TGI in [1], in test [2], in test [3], in [4], in test [5] and in test [6] was greater than 100 µM throughout. The TGI in test [7], in test [8], in test [9] and in [10] was greater than 100 µM each time.
As for `Nc1ccc(S(=O)(=O)NCc2nccs2)cc1`, the TGI in test [1] turned out to be 35.7 µM; in test [2] it was 63.4 µM; in test [3] it was 83.8 µM; in test [4], 59 µM; in [5] it was 37.8 µM; in [6] it was 45.3 µM. In addition, the TGI in test [7] was 51.2 µM; in test [8] it was 35.6 µM; in test [9], greater than 100 µM; in [10], 44 µM.
On to `COC(=O)C1=C(C(=O)OC)SC(=C(Cl)C(=S)Sc2ccccc2N)S1`, for which the GI50 in [1] was 19.3 µM; in test [2] it was 22.7 µM; in test [3] it was 43.8 µM; in [4] it was 30.7 µM; in [5] it was 20.5 µM; in test [6] it was 2.03 µM. In addition, the GI50 is greater than 100 µM in test [7], 17.4 µM in [8], 52.4 µM in [9] and greater than 100 µM in test [10]. The TGI in test [1] is 41.5 µM; in test [2], 49.7 µM; in test [3], greater than 100 µM; in [4] it was greater than 100 µM; in test [5], 59.4 µM; in test [6] it was 8.6 µM. Also, the TGI in test [7] was greater than 100 µM; in [8] it was 43.1 µM; in test [9], greater than 100 µM; in [10], greater than 100 µM.
In the case of `CC(C)Oc1cc(O)c2c(c1)OCC=C2CCC(=O)O`, the TGI in test [1] is greater than 100 µM; in test [2] it was greater than 100 µM; in test [3], 66.2 µM; in [4] it was 69.8 µM; in test [5], 69.3 µM; in [6] it was greater than 100 µM. Further, the TGI in test [7] is greater than 100 µM; in test [8] it was 59.3 µM; in test [9] it was greater than 100 µM; in test [10], 42 µM.
Take `O=Cc1ccc(-c2cccs2)s1`: the TGI in [1] is 69.7 µM; in test [2] it was greater than 100 µM; in test [3] it was greater than 100 µM; in [4], 4.85 µM; in test [5], greater than 100 µM; in test [6] it was greater than 100 µM. The TGI was greater than 100 µM in test [7], greater than 100 µM in test [8], greater than 100 µM in test [9] and greater than 68.1 µM in [10].
For the compound `Cc1cc(N/N=C/c2nc(-c3ccc(Cl)cc3)oc2C)c2cc(Cl)ccc2n1`, the GI50 is 8.08 µM in test [1]; 1.95 µM in [2]; 1.68 µM in test [3]; 17 µM in test [4]; 1.94 µM in test [5]; 8.61 µM in test [6]. Further, the GI50 was 1.99 µM in test [7], 1.89 µM in test [8], 0.344 µM in [9] and 1.98 µM in test [10]. Further, the TGI worked out at 20.6 µM in [1]; 3.78 µM in test [2]; 3.66 µM in test [3]; 38.3 µM in test [4]; 4.16 µM in [5]; 21.1 µM in test [6]. The TGI in [7] was determined as 3.86 µM; in test [8], 4.27 µM; in [9], 4.84 µM; in test [10], 4.82 µM.
In the case of `CC1CCN(CC(=O)N2c3ccccc3Sc3cc4ccccc4cc32)CC1`, the TGI in test [1], in [2], in [3], in test [4], in test [5] and in test [6] was greater than 100 µM in each case. For the same compound, the TGI in [7], in [8], in [9] and in test [10] was greater than 100 µM throughout.
In the case of `FCc1ncc(-c2ccc(C(F)(F)F)cc2)c(NC2CCCCCC2)n1`, the GI50 in [1], in [2], in [3], in test [4], in test [5] and in test [6] was greater than 10 µM in each case. In addition, the GI50 in [7], in test [8], in test [9] and in [10] was greater than 10 µM each time. The TGI in test [1], in test [2], in [3], in test [4], in [5] and in [6] was greater than 10 µM in each case. Moreover, the TGI in [7], in test [8], in test [9] and in [10] was greater than 10 µM throughout.
Regarding `C[C@]12CC[C@@H]3c4ccc(O)cc4C(O)C[C@H]3[C@@H]1CCC2=O` (stereo partly drawn), the GI50 in [1], in test [2], in [3], in test [4], in test [5] and in [6] was greater than 100 µM in each case. Moreover, the GI50 in [7] was greater than 100 µM; in test [8] it was 60.8 µM; in [9] it was greater than 100 µM; in test [10], greater than 100 µM. The TGI in test [1], in [2], in [3], in [4], in test [5] and in [6] was greater than 100 µM each time. In addition, the TGI in test [7], in test [8], in [9] and in test [10] was greater than 100 µM in each case.
Turning to `O=C1CC(=O)OC(c2ccc([N+](=O)[O-])cc2)O1`, the GI50 was 2.04 µM in test [1]; 1.68 µM in test [2]; 2.25 µM in [3]; 2.07 µM in [4]; 1.94 µM in [5]; 2 µM in test [6]. Also, the GI50 is 1.93 µM in [7], 1.38 µM in test [8], 2.62 µM in test [9] and 2.01 µM in [10]. In addition, the TGI in [1] was found to be 4.93 µM; in test [2], 3.16 µM; in test [3] it was 7.15 µM; in test [4], 5.5 µM; in test [5], 4.23 µM; in test [6], 3.87 µM. In addition, the TGI in [7] was determined as 4.08 µM; in test [8] it was 2.72 µM; in [9] it was 9.09 µM; in test [10], 5.51 µM.
With `COC(=O)CCC1=C(C)/C(=C/c2[nH]c(-c3ccc[nH]3)cc2OC)N=C1C`, the GI50 in test [1] was 1.04 µM; in test [2] it was 0.84 µM; in test [3], 0.265 µM; in [4], 0.38 µM; in test [5], 2.35 µM; in [6] it was 0.493 µM. Moreover, the GI50 in test [7] is 0.869 µM; in test [8] it was 0.413 µM; in test [9], 0.317 µM; in test [10], 0.414 µM. For the same compound, the TGI was 12.9 µM in test [1]; 3.75 µM in test [2]; 1.95 µM in [3]; 1.6 µM in [4]; 18.1 µM in test [5]; 5.45 µM in test [6]. The TGI in test [7] amounted to 3.55 µM; in test [8], 1.78 µM; in [9] it was 88.7 µM; in [10], 2.38 µM.
Take `CC[C@@]1(O)C(=O)OCc2c1cc1n(c2=O)Cc2cc3cc(N)ccc3nc2-1`: the GI50 in test [1] was 0.0195 µM and 0.11 µM; in test [3], 0.214 µM and 0.102 µM; in test [4] it was 0.00742 µM and 0.0143 µM; in [5] it was 0.0142 µM; in test [6], 0.158 µM; in [7] it was 0.183 µM and 0.0563 µM. Further, the GI50 in [8] is 0.0261 µM and < 0.0112 µM; in test [9], 0.0134 µM; in test [10] it was 0.0718 µM. Also, the TGI in test [1] is 0.109 µM and 0.627 µM; in test [2], 0.108 µM and 0.013 µM; in [4] it was 0.111 µM and 0.108 µM; in [5] it was 0.243 µM and 0.123 µM; in test [6], 1.11 µM; in [7], 4.58 µM and 2.2 µM. Also, the TGI in [8] was 0.721 µM and 0.182 µM; in test [9], 0.0236 µM; in test [10] it was 1.03 µM.
For `Cn1cc(CNCC2CCN(c3ncc(C(=O)NO)cn3)CC2)c2ccccc21`, the GI50 in test [1] is less than 0.01 µM; in [2], 0.0229 µM; in [3] it was 0.144 µM; in test [4], 0.0351 µM; in test [5], 0.0344 µM; in test [6], 0.225 µM. Moreover, the GI50 in test [7] is 0.0122 µM; in test [8], less than 0.01 µM; in test [9] it was less than 0.0124 µM; in test [10], 0.0242 µM. In addition, the TGI turned out to be 0.598 µM in test [1]; 0.0962 µM in test [2]; 15.8 µM in [3]; 1.09 µM in test [4]; 15.7 µM in test [5]; 14.3 µM in test [6]. Further, the TGI is 0.102 µM in test [7], 0.0615 µM in [8], greater than 53.9 µM in [9] and 17.5 µM in [10].
With `CNC(=S)N/N=C/c1ccc([N+](=O)[O-])s1`, the TGI in [1], in test [2], in [3], in test [4], in test [5] and in [6] was greater than 10 µM throughout. Further, the TGI in test [7], in test [8], in test [9] and in test [10] was greater than 10 µM each time.
For the compound `Fc1cccc(Cl)c1/C=N\N=C1c2ccccc2-c2ccccc21`, the TGI in test [1], in [2], in test [3], in test [4], in test [5] and in test [6] was greater than 100 µM throughout. In addition, the TGI in [7], in test [8], in [9] and in [10] was greater than 100 µM throughout.
As to `O=C1c2ccccc2-n2c1nc1ccccc1c2=O`, the TGI in [1] was 29.9 µM; in [2], 29.3 µM; in test [3], greater than 81.3 µM; in test [4], greater than 80.1 µM; in [5], greater than 68.8 µM; in test [6] it was 45.4 µM. For the same compound, the TGI in test [7] is 50.7 µM; in test [8], 64.3 µM; in [9], greater than 100 µM; in test [10], 41.4 µM.
`COc1cc(Cn2c(-c3nonc3N)nc3ccccc32)ccc1C`: the GI50 in [1] is 1.59 µM; in test [2], 0.726 µM; in test [3], 0.427 µM; in test [4], 1.91 µM; in [5] it was 3.69 µM; in [6], 0.463 µM. Also, the GI50 in test [7] is 2.91 µM; in test [8] it was 0.243 µM; in [9] it was 0.516 µM; in [10], 0.345 µM. The TGI in test [1] is 43.5 µM; in [2], greater than 93.8 µM; in test [3], greater than 100 µM; in test [4] it was greater than 100 µM; in test [5] it was greater than 100 µM; in test [6], 49.4 µM. Also, the TGI in test [7] is greater than 62.7 µM; in test [8], 0.735 µM; in test [9], greater than 100 µM; in [10] it was 50.8 µM.
Turning to `Cn1c(=O)c2c(ncn2CN2CCN(Cn3cnc4c3c(=O)n(C)c(=O)n4C)CC2)n(C)c1=O`, the TGI in [1], in test [2], in [3], in test [4], in test [5] and in test [6] was greater than 100 µM in each case. For the same compound, the TGI was greater than 100 µM in test [7], greater than 100 µM in [8], greater than 100 µM in test [9] and 54 µM in [10].

(Values after PubChem BioAssay (NCI).)
